Experimental data: a melting point compilation (Tetko et al.; mined from patent text by program, amines drawn as free bases though some values may be those of a salt)

melting point [°C]	SMILES
141 to 143	Nc1ccc(N2CCN(Cc3ccccc3)CC2)cc1CS(=O)(=O)c1ccccc1
105 to 106	CCOC(=O)/C=C/C=C(c1cccc([N+](=O)[O-])c1)c1cccc([N+](=O)[O-])c1
33 to 36	CC(CCBr)Oc1ccccc1 (centres undefined)
145 to 149	CC(C(=O)O)c1ccc2noc(-c3ccccc3)c2c1 (centres undefined)
94 to 96	O=C(Cc1ccccc1)c1ccncc1
74	O=C(c1ccccc1)c1ccc(OCC(O)COCCCCCCCCOCC(O)COc2ccc(C(=O)c3ccccc3)c(O)c2)cc1O (centres undefined)
76 to 79	CC(=O)O[C@H]1CC=CO[C@@H]1COS(=O)(=O)c1ccc(C)cc1
200 to 201	CS(=O)(=O)NCCCCn1c(CC2CC2)nc2c(N)nc3ccccc3c21
60 to 61	CCOC(=O)CCC1CCC(=O)N1 (centres undefined)
132 to 134	CN1CC(CCn2cccn2)Oc2ncccc2C1=O (centres undefined)
85 to 87	Cc1nccc(OCc2ccccc2)c1OCc1ccccc1
134 to 135	COC(=O)[C@H](CC(C)C)NC(=O)CCC(=O)Nc1ccc(Nc2ccccc2)cc1
102 to 104	O=C1NC(=O)C(Cc2ccc(OCCC3OCCO3)cc2)S1 (centres undefined)
49 to 52	CC(C)(CCCCC(=O)CCCCC1(C(=O)O)CC1)C(=O)O
234 to 236	NC(=O)c1c(N)n[nH]c1N1CCN(Cc2ccccc2)CC1
165 to 168	COc1cc(C(C)(C)CCCC(=O)OC2CC(C)(C)NC(C)(C)C2)c(O)cc1C(C)(C)CCCC(=O)OC1CC(C)(C)NC(C)(C)C1
233 to 235	CCc1nc2c(N)nc3ccc(-c4ccccc4)cc3c2n1CC(C)C
195 to 196	CCCc1c([C@@H]2C[C@H]2c2ccccc2)oc2ccc(C(=O)O)cc2c1=O (relative stereo)
> 200	N=C(N)c1ccc(-c2ccc(N3CCCN(CC(=O)O)C3=O)cc2)cc1
160	CC(C)(C)OC(=O)C1CCN(C(=O)C2CN(c3ccc(C(=N)N)cc3)C(=O)O2)CC1 (centres undefined)
239 to 243	N#CC1=C(N)Oc2c(ccc3cnccc23)C1c1cccc([N+](=O)[O-])c1 (centres undefined)
282 to 283	COc1ccccc1-c1ncc(-c2nnn[nH]2)c(=O)[nH]1
102 to 103	Nc1ccccc1-c1ccc(C(O)CCC(=O)O)cc1 (centres undefined)

melting point [°C]	SMILES
135	CS(=O)(=O)Cc1cc(F)cc(F)c1
266 to 268	CC1Oc2ccc(CN3CCN(c4ccc(C#N)cc4)CC3)cc2NC1=O (centres undefined)
245 to 248	Cc1ccc(-c2c(-c3ccc(S(C)(=O)=O)cc3)cnn(-c3ccc(F)cc3)c2=O)cc1F
50 to 54	Cc1ccc(C(F)(F)F)c2sc(Sc3ccc4c(c3)CCC3N(C)C(=O)CCC43C)nc12 (single isomer, unassigned; (+))
268 to 270	O=C1c2ccccc2NC(=S)C2CCCN12 (centres undefined)
123 to 127	Cc1ccc(C(=O)Nc2ccc3[nH]cc(C4CCN(C)CC4)c3n2)s1
164 to 165	Brc1cc(Br)c2c(c1)CCN2
> 250	COc1ccc2cc(N)cc3c2c1C(=O)N(O)C3=O
83 to 84	COC(=O)C1COc2ccc(S)cc2C1 (centres undefined)
70 to 71	CCc1nn(CCO)c(CC)c1Cc1c(F)cccc1F
166 to 167	C[C@H]1c2cc(F)ccc2-c2ccccc2N1S(=O)(=O)c1ccc(OS(N)(=O)=O)cc1
154	CCN(C1CCN(C)CC1)S(=O)(=O)c1ccc(Nc2nccc(Nc3ccc(F)cc3)n2)cc1
90 to 91	COc1cc(COc2nn(Cc3cccnc3)cc2CO)ccc1OCc1nc(-c2ccco2)oc1C
125 to 127	CCCCCCNC(=O)CS(=O)(=O)Nc1c(C(C)C)cccc1C(C)C
208 to 211	Cc1nc(N2CCNCC2)nc(N2CCS(=O)(=O)CC2)c1[N+](=O)[O-]
117 to 118	O=Cc1cn(Cc2cc(OCc3ccccc3)cc(OCc3ccccc3)c2)cc1-c1ccccc1
107	COc1cc(OCC(O)CCl)cc2oc3ccccc3c(=O)c12 (centres undefined)
111 to 113	COc1ccnc(CSc2nc3cscc3n2COC(C)=O)c1
88 to 91	Oc1ccc(-c2nn(-c3cc(F)ccc3F)c3cc(O)ccc23)c(O)c1
198 to 200	CCCc1nc2c(N)nc3cc(OCc4ccc(F)cc4)ccc3c2n1CC(C)C
62	CC(C)[C@@H]1COC(=O)N1C(=O)CCc1ccccc1
118 to 121	COC(=O)C(Cc1ccccc1)NC(=O)C(CC(=O)O)NC(=O)CC(C)=O (centres undefined)
244 to 245	Oc1ccc(N2CCN(c3nncc4ccccc34)CC2)cc1

melting point [°C]	SMILES
177 to 180	C[C@@H](NS(C)(=O)=O)[C@](O)(Cn1cncn1)c1ccc(Cl)cc1Cl (relative stereo)
138	COC(=O)Cc1cc(NC(=O)OC(C)(C)C)c(NC(=O)CC(=O)c2cccc(C#N)c2)cc1C#Cc1ccccc1
163 to 164	COC(=O)C=Cc1cnc(N2CCC[C@H]2CO)nc1NCc1ccc(OC)c(Cl)c1
262 to 264	Cn1cc(C2=C(c3c4n(c5ccccc35)CCC(CCN=[N+]=[N-])C4)C(=O)NC2=O)c2ccccc21 (centres undefined)
91 to 93	O=C(CCc1ccccc1)N[C@H](Cc1cccc(Oc2ccccc2)c1)[C@@H](O)c1ccc(F)cc1 (racemic)
173 to 175	CCCSc1ncc(CC(NC(=O)C2CCCC2)C(=O)O)n1Cc1ccccc1Cl (centres undefined)
95	CC(C)C(=O)C(=CN(C)C)c1ccc(Cl)cc1
129 to 131	CCCc1nc2c(N)ncc(Br)c2n1CCOCCNS(C)(=O)=O
102 to 108	CNS(=O)(=O)c1ccccc1Nc1nc(Nc2ccc3c(c2)CCN(CCOC)CC3)ncc1Cl
183 to 184	O=C(O)C1=Nc2ccc3c(c2=C1)=CCO3
115 to 116	CCCCc1c(/C=C/C(=O)Oc2ccc([N+](=O)[O-])cc2)ccc2c(OC)cccc12
164 to 166	COc1ccc(N2N=C(N)CC2c2ccccc2)cc1 (centres undefined)
170 to 172	Cc1nc2cccc(OCC(C)(C)C(=O)NCC3CCC3)c2c(N)c1C(=O)O
203 to 205	Cn1nc(C(=O)NCc2ccc(Cl)cc2)c(=O)c2cc(CO)ccc21
156 to 157	CN(C)CCCNC1=C2N=c3cc(Cl)ccc3=C2Oc2ccccc2N1C
96 to 97	CC(=O)NCC1CC1c1cccc2nscc12 (centres undefined)
164 to 166	CCOc1ccc2ccccc2c1C(=O)N1CCC(NS(=O)(=O)c2cc(S(=O)(=O)c3ccccc3)ccc2C(C)C)CC1
124 to 125	CC(N)=CC(=O)C1=C(C)CCCC1(C)C
235 to 237	Nc1nc2cc(Cl)c(Cl)cc2nc1-c1cccs1
120 to 122	COc1nc(C(=O)NC(C)(C)C)c(C(=O)O)s1
69	CSC(=C[N+](=O)[O-])NC(C)C(C)(C)C (centres undefined)
110	CC(C)CCNC(=O)CNC(=O)C(Br)Cc1ccccc1 (centres undefined)
202 to 204	COc1cc(CC(C#N)=CNc2ccccc2)cc(OC)c1N(C)C(C)=O

melting point [°C]	SMILES
176 to 178	CCCCOc1ncc(C(C)=O)cc1-c1nc2c(CC)n(C3CN(C(=O)OC(C)(C)C)C3)nc2c(=O)[nH]1
89 to 90.5	Cc1ccc(CS(=O)C2=C(O)CC(C)(C)CC2=O)cc1 (centres undefined)
197 to 198	NC(=O)c1nnn(Cc2ccccc2C(F)(F)F)c1N
54 to 55	CCCCOC(=O)COCCCNC(=O)[C@H](C)NC(=O)OCc1ccccc1
132 to 138	O=C(O)CN1C(=O)[C@@H](NC(CCc2ccccc2)C(=O)O)CSC1c1ccccc1 (some centres undefined)
221 to 222	Cn1c(=O)c(-c2ccc(Cl)cc2Cl)cc2c3cc(-c4cocn4)ccc3n(C)c21
176 to 178	Oc1ccc(O[C@@H]2CCNC[C@H]2O)cc1 (relative stereo)
102 to 103	CCCc1nn(-c2ccc(C(F)(F)F)cn2)cc1C(=O)OCC
> 300	Nc1nc2c(ncn2C2CC(O)C(CO)O2)c(=O)[nH]1 (centres undefined)
133	CC(CN1CCN(c2ccc(F)cc2)CC1)CN1c2cccc3cccc(c23)S1(=O)=O (centres undefined)
135 to 137	C/C(=C\c1ccc(C(C)(C)C)cc1)CNc1cccc(-c2ccnc3c(C(=O)c4cccs4)cnn23)c1
178 to 179	O=C1c2ccccc2C(=O)N1CC(=O)N1c2ccccc2N(CCc2ccccc2)C(=O)[C@H]2CCC[C@H]21 (relative stereo)
149 to 152	c1cc(CNc2nccc3ccccc23)cc(Nc2nnc3c4c(cccc24)-c2ccccc2-3)c1
139 to 140	CC(=O)Nc1cc(C)cc(OCc2ccccc2)c1C
229 to 231	O=c1[nH]ncc(NCCN2CCC(c3noc4cc(F)ccc34)CC2)c1Cl
49.5 to 50.4	CCCCCCCCCCc1ccc2cc(SC)c(OC)cc2c1
94 to 95	N#CC(C(=O)C(F)(F)C(F)(F)F)c1ccccc1 (centres undefined)
238 to 239	CNC(=O)NCC1OC(n2cc(C)c(=O)[nH]c2=O)CC1O (centres undefined)
> 250	O=C1N(Cc2ccccn2)c2ccc(Br)cc2C12COc1cc3c(cc12)OCCO3 (centres undefined)
55 to 57	CCNc1ccnc(Cl)c1
101 to 103	CCOc1ccc(Oc2c([N+](=O)[O-])cc(C(=O)OC)cc2[N+](=O)[O-])cc1

SMILES	melting point [°C]
CN1CCN(c2ccc([N+](=O)[O-])c(N)c2)CC1	109 to 110
CN1C(=O)[C@H](NC(=O)C2Cc3ccccc3O2)N=C(c2ccccc2)c2ccccc21 (some centres undefined)	141 to 180
Cc1ccc(CC(C)NCC(O)c2ccccc2)cc1 (centres undefined)	74 to 94
CCc1cccc2c1CCN([C@@H]1CN3CCC1CC3)C2=O	> 290
CCCC1=NN(c2ccc(C(=O)N(CC)CC)cc2)C(=O)C1=CNc1ccccc1CC	123
NC(=O)c1ncn2c1CN=C(c1ccccc1)c1cc(Cl)ccc1-2	295 to 296
CCS(=O)(=O)NC(=O)N1CC1C#N (centres undefined)	70 to 73
OC1(c2ccc(-c3ccccc3)cc2)CN2CCC1CC2 (centres undefined)	165 to 166
CC12C=CC(=O)C=C1C(SC#N)C(O)C1C2CCC2(C)C(=O)CCC12 (centres undefined)	206 to 208
